How the values were obtained:
[1] = system: IL-33 protein in PyMT cells; test: IL-33 protein levels in PyMT cells (western blot); format: cell-based, mouse; settings: dose range
Procedure: Pam212 cells were grown at 37° C. in DMEM (Thermo Fisher Scientific, Waltham, Mass., catalog no. 11995065) supplemented with 10% fetal bovine serum (Thermo Fisher Scientific, catalog no. 26140079), 1× penicillin-streptomycin-glutamine (Thermo Fisher Scientific, catalog no. 10378016), 1×MEM non-essential amino acids solution (Thermo Fisher Scientific, catalog no. 11140050), 1×HEPES (Thermo Fisher Scientific, catalog no. 15630080) and 0.1% 2-Mercaptoethanol (Thermo Fisher Scientific, catalog no. 21985023). PyMT cell lines (derived from a primary breast tumor of MMTV-PyMrg mouse on a C57BL/6 background) were grown at 37° C. in RPMI Medium 1640 (Thermo Fisher Scientific, catalog no. 11875093) supplemented with 10% fetal bovine serum, 1× penicillin-streptomycin-glutamine and 0.1% 2-Mercaptoethanol. IL-33 promoter-luci vector (GeneCopoeia, Rockville, Md., catalog no. MPRM3494-PG02) or Control-luci vector (deletion form of IL-33 promoter region from IL-33 promoter-luci vector) or Poly (I:C) (Invivogen, San Diego, Calif., catalog no. tlrl-pic) in Pam212 cells were performed using Lipofectamine 2000 (Thermo Fisher Scientific, catalog no. 11668019) according to the manufacturer's instructions.
Cell lysates were prepared in LIPA buffer (Thermo Fisher Scientific, catalog no. 89900) consisting of 1× protease inhibitor cocktail, EDTA-free (Thermo Fisher Scientific, catalog no. A32955). […]

[2] = system: p-IRF3; test: Poly (I:C) induced p-IRF3 expression in Pam212 cells; format: cell-based, mouse; settings: Pam212 cells with Poly (I:C)
Procedure: Cell lysates were prepared in LIPA buffer (Thermo Fisher Scientific, catalog no. 89900) consisting of 1× protease inhibitor cocktail, EDTA-free (Thermo Fisher Scientific, catalog no. A32955). Mice tissues were meshed and lysed by 0.1% TWEEN-(Millipore Sigma, catalog no. P1379) in PBS. Mice tissues were frozen by liquid nitrogen and thaw by incubation at 37° C. for further lysis. Cell lysates were sonicated for […], and then they were centrifugated at 13,200 rpm. After checking the protein concentration of each sample, the same amount of proteins was loaded into Mini-PROTEIN TGX™ Gels (BIO-RAD, Hercules, Calif., catalog no. 456-1083 or 456-1086) with 1× Tris/Glycine/SDS buffer (BIO-RAD, catalog no. 1610732). A few minutes later (according to protein size), they were transferred to Immobilon-P membrane (Millipore Sigma, catalog no. IPVH00010) with Transfer buffer (Boston Bioproducts, Ashland, Mass., catalog no. BP-190). Then, they were incubated 3% bovine serum albumin (Thermo Fisher Scientific, catalog no. BP1600) or 5% Skim milk (BD biosciences, San Jose, Calif., catalog no. 232100) in 1× Tris-Buffered Saline (Boston Bioproducts, catalog no. BM301X) containing 0.1% TWEEN, called TBS-T for 30 min. After the membrane was washed with TBS-T, they were subjected to immunoblot with proper antibodies for overnight at 4° C. […]

O=C(O)C[C@H](O)C[C@H](O)/C=C/c1c(C2CC2)nc2ccccc2c1-c1ccc(F)cc1 [pitavastatin]
endogenous IL-33 protein level [1]: decreased | level of p-IRF3 [2]: decreased
